Patent US11518981B2, “Methods of enhancing engraftment activity of hematopoietic stem cells” (CHILDREN'S HOSPITAL MEDICAL CENTER, priority 2017, dated 2022)

System: human MPB derived CD34^+ cells
Assay: human CD45^+ engraftment in bone marrow of NSG mice after primary transplant (1 T)
Assay type: in vivo
Settings: 24 weeks post 1 T; 72-96 h LV and RV groups
Description: Freshly isolated CD34^+ cells were used, wherever possible, and especially for 0 h controls. In some experiments cryopreserved CD34^+ cells were thawed for 4 hrs in IMDM containing cytokines, then washed and used for experiments. […] Cells were kept in culture for a total of either 18-24 hours, 36-42 hours or 72-96 hours. For RV transduction, human CD34^+ cells were pre-stimulated for 2 days (42-48 hours) hours at a cell density of 3×10^5 cells/ml. Retronectin coated tissue culture flasks or plates were preloaded at room temperature with GALV pseudotyped RV twice for one hour each. The vector supernatant was removed and the cells were loaded into the RV loaded retronectin coated flasks. RV transduction was also performed twice 24 hours apart at an MOI ranging from 5 to 10. After total of 72-96 hours in culture, cells were harvested. LV and RV transductions were performed at 37° C. under 5% CO2 in ambient oxygen concentrations (20% 02). For some experiments, LV was added just like RV after 2 days of pre-stimulation. p38 MAPK inhibitors Birb 796 (600 nM), Vx-745 (1 μM), or LY 2228820 (500 nM) (all from Selleckchem) were supplemented to the culture media. […] Human engraftment was analyzed in bone marrow (BM), via BM aspirates performed at 6 and 12 weeks from left and right femurs. […]

## Cc1ccc(-n2nc(C(C)(C)C)cc2NC(=O)Nc2ccc(OCCN3CCOCC3)c3ccccc23)cc1 [p38i, 1-[5-tert-butyl-2-(4-methylphenyl)pyrazol-3-yl]-3-[4-(2-morpholin-4-ylethoxy)naphthalen-1-yl]urea]
  human CD45^+ cell engraftment in the NSG BM: improved
